Measurements published in PMC5726399 (Neuropharmacology, 2017).
Entries after “also recorded” stand apart in the source; their conditions may differ. Structures can show the parent of a compound that is named as a salt. Where two headings read alike, the source gives them in different places. Where no end group is shown, it is not given here.

How the values were obtained:
[1] = system: NMDA receptors; settings: ref Chen et al., 2010, cited from earlier work; for effect on NMDA-induced substance P release: Marvizon et al., 1997
[2] = system: AC/PKA pathway; assay: NK1R internalization induced by forskolin or 8-Br-cAMP in slices; design: species or system rat; settings: 60 min; for NK1R internalization elicited: 10 μM forskolin or 0.5 mM 8-Br-cAMP, no NMDA
[3] = system: NMDA receptor-induced substance P release; assay: NMDA-induced NK1R internalization in slices preincubated with BVT948; design: species or system rat; settings: 10 μM BVT948, 60 min preincubation
[4] = system: protein kinase A (PKA); assay: PKA inhibition: NMDA-induced NK1R internalization in slices; design: species or system rat; settings: 10 μM, 60 min
[5] = system: CTX-insensitive component of NMDA-induced substance P release; assay: CTX-insensitive component of NMDA-induced substance P release in slices; design: species or system rat; settings: 1 μM DAMGO, 100 μM SQ22536 or 10 μM KT5720, 60 min; for additional inhibition in presence of CTX GVIA: 1 μM CTX GVIA; for additional inhibition in presence of CTX MVIIC: 1 μM CTX MVIIC
[6] = system: NMDA receptors; assay: NMDA-induced NK1R internalization in spinal cord slices; design: species or system rat; settings: 10 μM NMDA + 10 μM D-Ser, 2 min, 35 °C
[7] = system: NMDA receptors in DRG neurons; format: cell-based, rat
[8] = system: substance P release / NK1R internalization in lamina I neurons; assay: In vivo NK1R internalization induced by intrathecal NMDA; design: species or system rat; settings: for lamina 1 neurons with NK1R internalization in example image: confocal image, one rat per group, L4
[9] = system: protein kinase C (PKC); assay: PKC inhibitors and activators: NMDA-induced NK1R internalization in slices; design: species or system rat; settings: for effect on NMDA-induced substance P release: 60 min
[10] = system: adenylyl cyclase (AC); assay: AC inhibition: NMDA-induced NK1R internalization in slices; design: species or system rat; settings: SQ22536 10 μM, 60 min
[11] = system: TRPV1 channels; settings: cited from earlier work
[12] = system: TRPV1 channels; design: species or system rat
[13] = system: NR1a/NR2B NMDA receptors; settings: Xenopus oocytes; ref Williams, 1993; cited from earlier work
[14] = molecular target: rat brain membranes; settings: ref Grimwood et al., 2000; cited from earlier work
[15] = molecular target: NMDA receptors with the NR2B subunit (Rattus norvegicus, UniProt P35439+Q00960); settings: % NK1R internalization
[16] = system: GIRK channels; design: species or system rat
[17] = system: NMDA receptor-induced substance P release; assay: NMDA-induced NK1R internalization in slices preincubated with BDNF; design: species or system rat
[18] = chelerythrine 10 μM, Ro-32-0432, TPPB 1 μM, with 10 nM DAMGO
[19] = chelerythrine 10 μM, Ro-32-0432, TPPB, PMA 1 μM

NMDA receptors with the NR2B subunit, sequence (Q00960 27-1482, other chains not shown): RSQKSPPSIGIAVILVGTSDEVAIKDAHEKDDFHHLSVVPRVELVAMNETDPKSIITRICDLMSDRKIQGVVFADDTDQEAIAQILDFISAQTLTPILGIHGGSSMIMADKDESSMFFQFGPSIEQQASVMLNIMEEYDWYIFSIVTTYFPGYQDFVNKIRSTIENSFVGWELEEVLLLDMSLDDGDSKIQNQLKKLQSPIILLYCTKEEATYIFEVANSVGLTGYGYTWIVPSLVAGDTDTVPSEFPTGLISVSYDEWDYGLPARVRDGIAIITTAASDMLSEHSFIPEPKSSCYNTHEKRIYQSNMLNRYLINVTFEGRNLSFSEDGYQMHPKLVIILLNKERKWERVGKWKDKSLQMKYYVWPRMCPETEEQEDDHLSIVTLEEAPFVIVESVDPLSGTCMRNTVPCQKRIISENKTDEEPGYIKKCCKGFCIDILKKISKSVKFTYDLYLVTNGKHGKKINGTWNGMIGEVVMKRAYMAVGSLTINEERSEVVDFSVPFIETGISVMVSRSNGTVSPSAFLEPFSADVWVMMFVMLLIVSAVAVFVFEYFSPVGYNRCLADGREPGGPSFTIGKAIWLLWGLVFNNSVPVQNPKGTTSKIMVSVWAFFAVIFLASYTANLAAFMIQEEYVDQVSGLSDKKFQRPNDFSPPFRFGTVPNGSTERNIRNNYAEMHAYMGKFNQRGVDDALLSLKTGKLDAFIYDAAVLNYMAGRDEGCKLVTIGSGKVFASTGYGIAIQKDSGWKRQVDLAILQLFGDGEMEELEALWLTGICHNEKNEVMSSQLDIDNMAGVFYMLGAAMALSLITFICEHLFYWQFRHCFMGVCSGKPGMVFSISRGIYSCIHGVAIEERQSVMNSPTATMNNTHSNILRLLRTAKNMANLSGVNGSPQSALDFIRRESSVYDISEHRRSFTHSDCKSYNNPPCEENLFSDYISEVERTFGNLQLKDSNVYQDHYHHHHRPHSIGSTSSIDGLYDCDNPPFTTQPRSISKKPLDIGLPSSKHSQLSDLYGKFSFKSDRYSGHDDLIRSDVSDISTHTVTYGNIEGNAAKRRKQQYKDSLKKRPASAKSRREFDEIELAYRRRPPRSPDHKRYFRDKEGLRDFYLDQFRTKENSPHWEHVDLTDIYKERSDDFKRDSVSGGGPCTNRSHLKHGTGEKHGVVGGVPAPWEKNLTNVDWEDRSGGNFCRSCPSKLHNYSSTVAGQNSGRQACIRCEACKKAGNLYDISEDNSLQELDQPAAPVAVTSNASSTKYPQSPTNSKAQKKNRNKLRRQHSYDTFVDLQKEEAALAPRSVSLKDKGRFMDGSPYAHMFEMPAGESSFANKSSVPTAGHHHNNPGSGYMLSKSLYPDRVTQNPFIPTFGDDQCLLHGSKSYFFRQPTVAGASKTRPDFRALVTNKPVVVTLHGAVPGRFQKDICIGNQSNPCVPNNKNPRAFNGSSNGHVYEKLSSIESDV

## NC(CCCP(=O)(O)O)C(=O)O (centres unmarked) [2-amino-phosphopentanoic acid]
[1]
  effect on NMDA-induced substance P release: inhibited

## Nc1ncnc2c1nc(Br)n2[C@@H]1O[C@@H]2COP(=O)(O)O[C@H]2[C@H]1O [8-Br-cAMP, 8-Bromoadenosine-3′,5′-cyclic monophosphate]
[2]
  NK1R internalization elicited: greater than NMDA+D-Ser, with 8-Br-cAMP producing the larger effect

## CC1(C)C(=O)N=C2C1=C(O)C(=O)c1ccccc12 [BVT948, 4-hydroxy-3,3-dimethyl-2H-benz[g]indole-2,5(3H)-dione]
[3]
  effect on NMDA-induced NK1R internalization: substantially increased NMDA-induced NK1R internalization

## CCCCCCOC(=O)[C@]1(O)C[C@@H]2O[C@@]1(C)n1c3ccccc3c3c4c(c5c6ccccc6n2c5c31)C(=O)NC4 [KT5720, (9R,10S,12S)-2,3,9,10,11,12-Hexahydro-10-hydroxy-9-methyl-1-oxo-9,12-epoxy-1H-diindolo[1,2,3-fg:3′,2′,1′-kl]pyrrolo[3,4-i][1,6]benzodiazocine-10-carboxylic acid, hexyl ester]
[4]
  effect on NMDA-induced NK1R internalization: did not completely abolish NMDA-induced NK1R internalization
[4]; listed as KT 5720
  effect on NMDA-induced NK1R internalization: decreased
[5]
  additional inhibition in presence of CTX GVIA: did not produce any further inhibition
  additional inhibition in presence of CTX MVIIC: did not produce any further inhibition

## C[C@]12N[C@H](Cc3ccccc31)c1ccccc12 [MK-801, (5S,10R)-(+)-5-Methyl-10,11-dihydro-5H-dibenzo[a, d]cyclohepten-5,10-imine maleate]
[1]
  effect on NMDA-induced substance P release: inhibited
[2]; 10 μM MK-801 or 1 μM DAMGO with 10 μM forskolin
  effect on forskolin-evoked substance P release: substantially decreased their effect on substance P release, although not to control levels
[2]; 10 μM MK-801 or 1 μM DAMGO with 0.5 mM 8-Br-cAMP
  effect on 8-Br-cAMP-evoked substance P release: substantially decreased their effect on substance P release, although not to control levels

## CN[C@H](CC(=O)O)C(=O)O [NMDA, N-methyl-D-aspartate]
[6]
  NK1R internalization induced (lamina I NK1R neurons): about 50%
[7]
  [Ca2+]i increase: increases in some of the neurons
[8]
  lamina 1 neurons with NK1R internalization in example image: there was no NK1R internalization

## CN(C)C[C@H]1CCn2c(c(C3=C(c4cn(C)c5ccccc45)C(=O)NC3=O)c3ccccc32)C1.Cl [Ro-32-0432, 3-[(8S)-8-[(Dimethylamino)methyl]-6,7,8,9-tetrahydropyrido[1,2-a]indol-10-yl]-4-(1-methyl-1H-indol-3-yl)-1H-pyrrole-2,5-dione hydrochloride]
[9]; [18]
  effect on inhibition by 10 nM DAMGO: did not increase its inhibition by DAMGO
[9]; [19]
  effect on NMDA-induced substance P release: did not affect NMDA-induced substance P release

## Nc1ncnc2c1ncn2C1CCCO1 (centres unmarked) [SQ22536, 9-(Tetrahydro-2-furanyl)-9H-purin-6-amine]
[10]
  effect on NMDA-induced NK1R internalization: but not at 10 μM
[5]
  additional inhibition in presence of CTX GVIA: did not produce any further inhibition
  additional inhibition in presence of CTX MVIIC: did not produce any further inhibition

## CC(C)[C@H]1C(=O)N[C@H](CO)Cc2cc(NC(=O)/C=C/C=C/c3ccc(C(F)(F)F)cc3)ccc2N1C [TPPB, (2E4E)-N-[(2S,5S)-1,2,3,4,5,6-Hexahydro-5-(hydroxymethyl)-1-methyl-2-(1-methylethyl)-3-oxo-1,4-benzodiazocin-8-yl]-5-[4-(trifluoromethyl)phenyl]-2,4-pentadienamide]
[9]
  effect on inhibition by 10 nM DAMGO: did not affect inhibition by 10 nM DAMGO
  effect on NMDA-induced substance P release: strongly increased NMDA-induced substance P release

## NCC(CC(=O)O)c1ccc(Cl)cc1 (centres unmarked) [baclofen]
[11]; capsaicin on dorsal root or low concentrations, ref Lao et al., 2003
  effect on substance P release by dorsal root or low-concentration capsaicin: can be inhibited
[11]; higher capsaicin concentrations, ref Lao et al., 2003
  effect on substance P release by higher concentrations of capsaicin: did not inhibit substance P release

## COc1cc(CNC(=O)CCCC/C=C/C(C)C)ccc1O [capsaicin]
[11]; read-out: EC50 to induce NK1R internalization, ref Marvizon et al., 2003a
  EC50: 370 nM
[1]; C-fibers depleted by incubating slices with capsaicin
  effect of substance P depletion on NMDA-induced substance P release: disappears
[12]
  NK1R internalization elicited by 0.3 μM capsaicin: 75%
  NK1R internalization elicited by 1 μM capsaicin: maximal NK1R internalization

## Oc1cc2c(cc1O)CN(C(=S)NCCc1ccc(Cl)cc1)CCC2 [capsazepine]
[11]; ref Lao et al., 2003
  effect on capsaicin-induced substance P release (TRPV1 antagonist): blocked

## COc1ccc2c(c[n+](C)c3c4cc5c(cc4ccc23)OCO5)c1OC [chelerythrine]
[9]; [18]
  effect on inhibition by 10 nM DAMGO: did not increase its inhibition by DAMGO; also recorded: showed a trend to decrease the inhibition by 10 nM DAMGO
[9]; [19]
  effect on NMDA-induced substance P release: did not affect NMDA-induced substance P release

## C=C[C@@]1(C)CC(=O)[C@]2(O)[C@@]3(C)[C@@H](O)CCC(C)(C)[C@@H]3[C@H](O)[C@H](OC(C)=O)[C@@]2(C)O1 [forskolin]
[2]
  NK1R internalization elicited: greater than NMDA+D-Ser

## CC(C(O)c1ccc(O)cc1)N1CCC(Cc2ccccc2)CC1 (centres unmarked) [ifenprodil]
[13]
  potency to inhibit currents: 340 nM
[14]
  Kd: 25 nM
[15]
  top: 62 ± 3%
[15]; basal without NMDA 12±1%
  bottom: 26 ± 2%

## CCN(CC)CC(=O)Nc1c(C)cccc1C [lidocaine]
[1]
  effect on NMDA-induced substance P release (action potential block): not affected

## PKI 14–22: protein kinase inhibitor 14–22, PKA inhibitor (GRTGRRNAI; also: myristoylated; UniProt P61925 15-23, looked up, fragment)
[4]
  effect on NMDA-induced NK1R internalization: decreased

## tertiapin Q
[16]
  effect on NMDA-induced NK1R internalization: small but significant inhibition
  effect on inhibition by DAMGO: did not affect the inhibition by DAMGO

B1: BDNF: brain-derived neurotrophic factor (protein, UniProt P23560 19-247, looked up)
Neurotrophic factor BDNF …: APMKEANIRGQGGLAYPGVRTHGTLESVNGPKAGSRGLTSLADTFEHVIEELLDEDQKVRPNEENNKDADLYTSRVMLSSQVPLEPPLLFLLEEYKNYLDAANMSMRVRRHSDPARRGELSVCDSISEWVTAADKKTAVDMSGGTVTVLEKVPVSKGQLKQYFYETKCNPMGYTKEGCRGIDKRHWNSQCRTTQSYVRALTMDSKKRIGWRFIRIDTSCVCTLTIKRGR
[17]
  effect on NMDA-induced NK1R internalization: increased NMDA-induced NK1R internalization
[8]
  lamina 1 neurons with NK1R internalization in example image: 5 out of 7 cells
[8]; intrathecal BDNF 0.3 μg, 4 h before NMDA + D-Ser, p<0.01 vs NMDA
  effect of BDNF on NMDA-induced NK1R internalization: significant increase in NMDA-induced NK1R internalization
